Like-named read-outs stand apart in the source and are kept apart here. Peptide text beside a SMILES is read from it.
Molecular target: ACE2 (Homo sapiens, UniProt Q9BYF1)
Test: ACE2 quenched fluorescence substrate (QFS) inhibition assay
Type: biochemical
Experimental: Angiotensin converting enzyme 2 QFS assays were performed for 1 h in 50 uM QFS, 1 M NaCl, 100 mM Tris-Cl, pH 6.5 at 37∘C on a BMG LabTechnologies (Offenburg, Germany), FLUOStar Optima in a 96 well-plate. Subsequent data analysis determined the inhibition of native AngII, its analogs and C-terminal peptides compared to the ACE2 QFS substrate [MCA-APK(DNP)-OH, [Vickers et al., 2002]]. […] Three controls were included in each ACE2 QFS assay; AngII (100 and 10 μM), IHPF (100 μM) and a known ACE2 inhibitor (1 nM; Millennium Pharmaceuticals, Cambridge, MA, USA). QFS assay results were accepted when ACE2 inhibition by AngII (10 μM) was 80 ± 5%, IHPF was 65 ± –5% and the ([Qian et al., 1999]) ‘Millennium Inhibitor’ was 70 ± –5%. Acceptable coefficients of variation (CV; standard deviation/mean × 100) for sample triplicates were <7%.
A library of 40 tetrapeptides based on the four C-terminal residues of Ang II (Ile-His-Pro-Phe/IHPF) was generated and screened for ACE2 binding at 100 μM in order to identify key residues of the C-terminus of Ang II involved in binding to the ACE2 active site. […] Several substitutions (Val, Tyr, Ala, Gly, Phe, Trp, Pro, His, Ile, and Leu) were made in order to further probe the highly hydrophobic and cyclic specificity of the C-terminus of Ang II. A β-napthalene amino acid (Nth) derivative was used as a highly hydrophobic non-natural cyclic residue substitute, and Arg and Lys were substituted for histidine at the second position from the N-terminus of the tetrapeptide to determine if positive charge or other structural or positional requirements were important.

[1] = peptide 100 μM, 50 uM QFS, 1 M NaCl, 100 mM Tris-Cl pH 6.5, 37 °C, 1 h, triplicate, read-out: Inhibition (%) of ACE2, single and multiple residue substitution analogs (Table 2)
[2] = peptide 100 μM, 50 uM QFS MCA-APK(DNP)-OH, 1 M NaCl, 100 mM Tris-Cl pH 6.5, 37 °C, 1 h, fluorescence, triplicate, read-out: ACE2 inhibition of single substitution analogs of the C-terminal of AngII (Table 1)
[3] = pH 6.5, read-out: ACE2 inhibition of terminally modified IHPF analogs, 100 μM (Table 3)
[4] = 1 h, pH 6.5, read-out: Inhibition (%) of ACE2, single and multiple residue substitution analogs (Table 2)
[5] = read-out: ACE2 inhibition of terminally modified IHPF analogs, 10 μM (Table 3, in brackets), peptide 10 μM, 50 uM QFS, 1 M NaCl, 100 mM Tris-Cl pH 6.5, 37 °C, 1 h
[6] = read-out: ACE2 inhibition of terminally modified IHPF analogs, 100 μM (Table 3), peptide 100 μM, 50 uM QFS, 1 M NaCl, 100 mM Tris-Cl pH 6.5, 37 °C, 1 h

Chain of ACE2 (Q9BYF1 18-805, species assumed): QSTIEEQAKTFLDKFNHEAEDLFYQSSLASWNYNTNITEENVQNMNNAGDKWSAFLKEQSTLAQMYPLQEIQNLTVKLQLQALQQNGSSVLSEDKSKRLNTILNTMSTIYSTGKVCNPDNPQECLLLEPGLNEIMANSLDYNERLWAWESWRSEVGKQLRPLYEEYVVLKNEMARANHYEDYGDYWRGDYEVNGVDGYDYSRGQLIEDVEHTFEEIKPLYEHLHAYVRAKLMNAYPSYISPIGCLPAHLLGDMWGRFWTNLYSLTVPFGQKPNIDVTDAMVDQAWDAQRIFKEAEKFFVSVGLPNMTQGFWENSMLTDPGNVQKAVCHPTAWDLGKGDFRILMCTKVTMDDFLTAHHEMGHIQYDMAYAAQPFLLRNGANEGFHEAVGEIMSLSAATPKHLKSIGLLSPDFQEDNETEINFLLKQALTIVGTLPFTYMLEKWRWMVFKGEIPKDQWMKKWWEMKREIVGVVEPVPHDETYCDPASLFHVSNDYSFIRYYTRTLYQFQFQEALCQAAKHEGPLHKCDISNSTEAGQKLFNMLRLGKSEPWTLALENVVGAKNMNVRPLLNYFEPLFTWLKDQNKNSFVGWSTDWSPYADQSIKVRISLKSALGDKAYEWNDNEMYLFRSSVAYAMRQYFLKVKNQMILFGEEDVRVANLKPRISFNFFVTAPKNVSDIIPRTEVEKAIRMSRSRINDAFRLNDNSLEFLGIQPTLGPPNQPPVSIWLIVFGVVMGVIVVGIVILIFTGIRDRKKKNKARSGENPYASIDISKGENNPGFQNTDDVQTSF

SMILES | inhibition at 100 µM [2] [%] | inhibition at 100 µM [6] [%] | further results
CC[C@H](C)[C@H](N)C(=O)N[C@@H](Cc1ccc(O)cc1)C(=O)N[C@H](C(=O)N[C@@H](Cc1ccccc1)C(=O)O)C(C)C [IYVF] (H-IYVF-OH) |  |  | inhibition at 100 µM [1]: 77%
CC[C@H](C)[C@H](N)C(=O)N[C@@H](Cc1c[nH]cn1)C(=O)N1CCC[C@H]1C(=O)N[C@@H](Cc1c[nH]c2ccccc12)C(=O)O [IHPW] (H-IHPW-OH) | 57 |  | 
CC(C)[C@H](N)C(=O)N[C@@H](Cc1ccc(O)cc1)C(=O)N1CCC[C@H]1C(=O)N[C@@H](Cc1ccccc1)C(N)=O [C-amidated VYPF] (H-VYPF-NH2) |  |  | inhibition at 100 µM [3]: 25%
O=C(O)[C@H](Cc1ccccc1)NC(=O)[C@@H]1CCCN1C(=O)[C@H](Cc1ccc(O)cc1)NC(=O)[C@@H]1CCCN1 [PYPF] (H-PYPF-OH) |  |  | inhibition at 100 µM [4]: 93%; inhibition at 10 µM (pH 6.5, read-out: ACE2 inhibition of terminally modified IHPF analogs, 10 μM (Table 3, in brackets)): 50%; inhibition at 100 µM [3]: 93%
CC[C@H](C)[C@H](N)C(=O)N[C@@H](Cc1ccc(O)cc1)C(=O)N1CCC[C@H]1C(=O)N[C@@H](Cc1ccccc1)C(N)=O [C-amidated IYPF] (H-IYPF-NH2) |  |  | inhibition at 100 µM [3]: 8%
CC[C@H](C)[C@H](N)C(=O)N[C@@H](Cc1c[nH]cn1)C(=O)N[C@@H](Cc1ccccc1)C(=O)N[C@@H](Cc1ccccc1)C(=O)O [IHFF] (H-IHFF-OH) | 0 |  | 
CC(C)[C@H](N)C(=O)N[C@@H](Cc1ccc(O)cc1)C(=O)N1CCC[C@H]1C(=O)N[C@@H](Cc1ccccc1)C(=O)O [VYPF] (H-VYPF-OH) |  |  | inhibition at 100 µM [4]: 90%
CC(C)[C@H](N)C(=O)N[C@@H](Cc1c[nH]cn1)C(=O)N[C@H](C(=O)N[C@@H](Cc1ccccc1)C(=O)O)C(C)C [VHVF] (H-VHVF-OH) |  | 85 | inhibition at 100 µM [1]: 85%; inhibition at 10 µM [5]: 37%
CC(=O)N[C@H](C(=O)N[C@@H](Cc1c[nH]cn1)C(=O)N[C@H](C(=O)N[C@@H](Cc1ccccc1)C(N)=O)C(C)C)C(C)C [N-acetylated/C-amidated VHVF] (Ac-VHVF-NH2) |  | 21 | inhibition at 10 µM [5]: 4%
CC(=O)N[C@H](C(=O)N[C@@H](Cc1ccc(O)cc1)C(=O)N1CCC[C@H]1C(=O)N[C@@H](Cc1ccccc1)C(N)=O)C(C)C [N-acetylated/C-amidated VYPF] (Ac-VYPF-NH2) |  |  | inhibition at 100 µM [3]: 30%
O=C(O)[C@H](Cc1ccccc1)NC(=O)[C@@H]1CCCN1C(=O)[C@H](Cc1c[nH]cn1)NC(=O)[C@@H]1CCCN1 [PHPF] (H-PHPF-OH) | 78 | 81 | inhibition at 10 µM [5]: 20%
CC[C@H](C)[C@H](N)C(=O)N[C@@H](Cc1c[nH]cn1)C(=O)N1CCC[C@H]1C(=O)N[C@H](C(=O)O)C(C)C [IHPV] (H-IHPV-OH) | 18 |  | 
N[C@@H](Cc1ccccc1)C(=O)N[C@@H](Cc1c[nH]cn1)C(=O)N1CCC[C@H]1C(=O)N[C@@H](Cc1ccccc1)C(=O)O [FHPF] (H-FHPF-OH) | 48 |  | 
CC[C@H](C)[C@H](N)C(=O)N1CCC[C@H]1C(=O)N1CCC[C@H]1C(=O)N[C@@H](Cc1ccccc1)C(=O)O [IPPF] (H-IPPF-OH) | 0 |  | 
N[C@@H](Cc1ccc(O)cc1)C(=O)N[C@@H](Cc1c[nH]cn1)C(=O)N1CCC[C@H]1C(=O)N[C@@H](Cc1ccccc1)C(=O)O [YHPF] (H-YHPF-OH) | 34 |  | 
CC(C)[C@H](N)C(=O)N[C@@H](Cc1ccc(O)cc1)C(=O)N[C@H](C(=O)N[C@@H](Cc1ccccc1)C(=O)O)C(C)C [VYVF] (H-VYVF-OH) |  |  | inhibition at 100 µM [1]: 78%
CC(C)[C@H](NC(=O)[C@H](Cc1c[nH]cn1)NC(=O)[C@@H]1CCCN1)C(=O)N[C@@H](Cc1ccccc1)C(N)=O [C-amidated PHVF] (H-PHVF-NH2) |  | 12 | 
CC[C@H](C)[C@H](N)C(=O)N[C@@H](Cc1c[nH]cn1)C(=O)N1CCC[C@H]1C(=O)N[C@H](C(=O)O)[C@@H](C)CC [IHPI] (H-IHPI-OH) | 36 |  | 
C[C@H](N)C(=O)N[C@@H](Cc1c[nH]cn1)C(=O)N1CCC[C@H]1C(=O)N[C@@H](Cc1ccccc1)C(=O)O [AHPF] (H-AHPF-OH) | 59 |  | 
CC[C@H](C)[C@H](N)C(=O)N[C@@H](Cc1c[nH]cn1)C(=O)N1CCC[C@H]1C(=O)N[C@@H](CC(C)C)C(=O)O [IHPL] (H-IHPL-OH) | 48 |  | 

Second part, led by results:

inhibition at 100 µM [2] [%] | inhibition at 100 µM [6] [%] | SMILES | further results
19 |  | CC[C@H](C)[C@H](N)C(=O)N[C@@H](Cc1c[nH]cn1)C(=O)N[C@@H](C)C(=O)N[C@@H](Cc1ccccc1)C(=O)O [IHAF] (H-IHAF-OH) | 
0 |  | N[C@@H](Cc1c[nH]c2ccccc12)C(=O)N[C@@H](Cc1c[nH]cn1)C(=O)N1CCC[C@H]1C(=O)N[C@@H](Cc1ccccc1)C(=O)O [WHPF] (H-WHPF-OH) | 
0 |  | NCC(=O)N[C@@H](Cc1c[nH]cn1)C(=O)N1CCC[C@H]1C(=O)N[C@@H](Cc1ccccc1)C(=O)O [GHPF] (H-GHPF-OH) | 
 | 86 | CC(C)[C@H](N)C(=O)N[C@@H](Cc1c[nH]cn1)C(=O)N[C@H](C(=O)N[C@@H](Cc1ccccc1)C(N)=O)C(C)C [C-amidated VHVF] (H-VHVF-NH2) | inhibition at 10 µM [5]: 40%
 | 87 | CC(=O)N1CCC[C@H]1C(=O)N[C@@H](Cc1ccc(O)cc1)C(=O)N1CCC[C@H]1C(=O)N[C@@H](Cc1ccccc1)C(=O)O [N-acetylated PYPF] (Ac-PYPF-OH) | inhibition at 10 µM [5]: 44%
 | 8 | CC(=O)N1CCC[C@H]1C(=O)N[C@@H](Cc1c[nH]cn1)C(=O)N1CCC[C@H]1C(=O)N[C@@H](Cc1ccccc1)C(N)=O [N-acetylated/C-amidated PHPF] (Ac-PHPF-NH2) | 
0 |  | CC[C@H](C)[C@H](N)C(=O)N[C@@H](Cc1c[nH]cn1)C(=O)NCC(=O)N[C@@H](Cc1ccccc1)C(=O)O [IHGF] (H-IHGF-OH) | 
 | 8 | CC(=O)N1CCC[C@H]1C(=O)N[C@@H](Cc1c[nH]cn1)C(=O)N[C@H](C(=O)N[C@@H](Cc1ccccc1)C(=O)O)C(C)C [N-acetylated PHVF] (Ac-PHVF-OH) | 
 | 93 | CC(C)[C@H](NC(=O)[C@H](Cc1c[nH]cn1)NC(=O)[C@@H]1CCCN1)C(=O)N[C@@H](Cc1ccccc1)C(=O)O [PHVF] (H-PHVF-OH) | inhibition at 100 µM [1]: 93%; inhibition at 10 µM [5]: 49%
54 |  | CC[C@H](C)[C@H](N)C(=O)N[C@@H](Cc1c[nH]cn1)C(=O)N1CCC[C@H]1C(=O)N[C@@H](Cc1c[nH]cn1)C(=O)O [IHPH] (H-IHPH-OH) | 
78 |  | CC(C)[C@H](N)C(=O)N[C@@H](Cc1c[nH]cn1)C(=O)N1CCC[C@H]1C(=O)N[C@@H](Cc1ccccc1)C(=O)O [VHPF] (H-VHPF-OH) | inhibition at 100 µM [1]: 78%
37 |  | CC[C@H](C)[C@H](N)C(=O)N[C@@H](C)C(=O)N1CCC[C@H]1C(=O)N[C@@H](Cc1ccccc1)C(=O)O [IAPF] (H-IAPF-OH) | 
 | 93 | CC[C@H](C)[C@H](NC(C)=O)C(=O)N[C@@H](Cc1ccc(O)cc1)C(=O)N1CCC[C@H]1C(=O)N[C@@H](Cc1ccccc1)C(=O)O [N-acetylated IYPF] (Ac-IYPF-OH) | inhibition at 10 µM [5]: 62%
44 |  | CC[C@H](C)[C@H](N)C(=O)N[C@@H](Cc1c[nH]cn1)C(=O)N1CCC[C@H]1C(=O)N[C@@H](C)C(=O)O [IHPA] (H-IHPA-OH) | 
 | 57 | CC(=O)N1CCC[C@H]1C(=O)N[C@@H](Cc1c[nH]cn1)C(=O)N1CCC[C@H]1C(=O)N[C@@H](Cc1ccccc1)C(=O)O [N-acetylated PHPF] (Ac-PHPF-OH) | 
 | 94 | CC(C)[C@H](NC(=O)[C@H](Cc1ccc(O)cc1)NC(=O)[C@@H]1CCCN1)C(=O)N[C@@H](Cc1ccccc1)C(=O)O [PYVF] (H-PYVF-OH) | inhibition at 100 µM [1]: 94%; inhibition at 10 µM [5]: 51%
32 |  | CC[C@H](C)[C@H](N)C(=O)N[C@H](C(=O)N1CCC[C@H]1C(=O)N[C@@H](Cc1ccccc1)C(=O)O)[C@@H](C)CC [IIPF] (H-IIPF-OH) | 
 | 26 | CC(C)[C@H](NC(=O)[C@H](Cc1ccc(O)cc1)NC(=O)[C@@H]1CCCN1)C(=O)N[C@@H](Cc1ccccc1)C(N)=O [C-amidated PYVF] (H-PYVF-NH2) | 
77 |  | CC[C@H](C)[C@H](N)C(=O)N[C@@H](Cc1c[nH]cn1)C(=O)N[C@H](C(=O)N[C@@H](Cc1ccccc1)C(=O)O)C(C)C [IHVF] (H-IHVF-OH) | inhibition at 100 µM [1]: 77%

— paper PMC4311625, “Structural determinants for binding to angiotensin converting enzyme 2 (ACE2) and angiotensin receptors 1 and 2” (Frontiers in Pharmacology, 2015)
